Assay results taken from patent publication US6617350B2, “Inhibitors of aspartyl protease” (priority 1999, dated 2003).
Read-outs that look alike come from different tables or passages of the source.

Key:
[1] = biological target: HIV-1 protease (Human immunodeficiency virus type 1 group M subtype B, UniProt P04585); assay: biochemical
[2] = test system: HIV-1 (strain IIIB); assay: microbe, parasite or virus in culture; type: cell-based; details: read-out: IC50
[3] = Table 12, HIV-1 protease, read-out: Ki
[4] = Human immunodeficiency virus 1, IIIB, MT4, Table 12, anti-viral potency in MT-4 cells
[5] = Table 12, anti-viral potency in MT-4 cells

CC(C)(CCC#N)CN(CC(O)C(Cc1ccccc1)NC(=O)OC1COC2OCCC12)S(=O)(=O)c1ccc(O)cc1 [Compound 35, {(1S,2R)-3-[(4-hydroxybenzenesulfonyl)-(4-cyano-2,2-dimethyl-butyl)-amino]-1-benzyl-2-hydroxy-propyl}-carbamic acid (2R,3aS,6aR)hexahydro-furo[2,3-b]furan-3-yl ester]
Ki [1, 3]: < 0.001 µM | IC50 [2, 4]: ≤ 0.1 µM

CC(C)(CCC#N)CN(C[C@@H](O)[C@H](Cc1ccccc1)NC(=O)OC1COCOC1)S(=O)(=O)c1ccc2c(c1)OCO2 [Compound 36, {(1S,2R)-3-[(Benzo[1,3]dioxole-5-sulfonyl)-(4-cyano-2,2-dimethyl-butyl)-amino]-1-benzyl-2-hydroxy-propyl}-carbamic acid[1,3]dioxan-5-yl ester]
Ki [1, 3]: < 0.001 µM | IC50 [2, 4]: ≤ 0.1 µM

CC(C)(CCC#N)CN(CC(O)C(Cc1ccccc1)NC(=O)OC1COC2OCCC12)S(=O)(=O)c1ccc2c(c1)OCCO2 (stereo not drawn) [Compound 37]
Ki [1, 3]: < 0.001 µM | IC50 [2, 4]: ≤ 0.1 µM

CNc1cccc(S(=O)(=O)N(CC(O)C(Cc2ccccc2)NC(=O)OC2COC3OCCC23)CC(C)(C)CCCC#N)c1 (stereo not drawn) [Compound 38]
Ki [1, 3]: < 0.001 µM | IC50 [2, 4]: ≤ 0.1 µM

CC(C)(CCCC#N)CN(CC(O)C(Cc1ccccc1)NC(=O)OC1COC2OCCC12)S(=O)(=O)c1ccc2c(c1)OCO2 (stereo not drawn) [Compound 39]
Ki [1, 3]: < 0.001 µM | IC50 [2, 4]: ≤ 0.1 µM | IC50 ([2]; Human immunodeficiency virus 1, IIIB, MT4, Table 13, MT-4 cell based assay, class symbol): 0.001 to 0.01 µM

CC(C)(CCCC#N)CN(CC(O)C(Cc1ccccc1)NC(=O)OC1COC2OCCC12)S(=O)(=O)c1ccc2c(c1)OCCO2 (stereo not drawn) [Compound 40]
Ki [1, 3]: < 0.001 µM | IC50 [2, 4]: ≤ 0.1 µM

CC(C)(CCC#N)CN(CC(O)C(Cc1ccccc1)NC(=O)OC1COC2OCCC12)S(=O)(=O)c1ccc2c(c1)OCCO2 (stereo not drawn) [Compound 41]
Ki [1, 3]: < 0.001 µM | IC50 [2, 5]: ≤ 0.1 µM

CC(C)(CCC#N)CN(C[C@@H](O)[C@H](Cc1ccccc1)NC(=O)OC1COCOC1)S(=O)(=O)c1ccc(O)cc1 [Compound 42, {(1S,2R)-1-Benzyl-3-[(4-cyano-2,2-dimethyl-butyl)-(4-hydroxybenzenesulfonyl)-amino]-2-hydroxy-propyl}-carbamic acid[1,3]dioxan-5-yl ester]
Ki [1, 3]: < 0.001 µM | IC50 [2, 4]: 0.1 to 0.5 µM

CCN(C(=O)OC(C)(C)C)c1cccc(S(=O)(=O)N(CC(O)C(Cc2ccccc2)NC(=O)OC2COC3OCCC23)CC(C)(C)CCC#N)c1 [Compound 43, {(1S,2R)-3-[(3-N-tert-butoxycarbonyl-N-ethylaminophenyl)sulfonyl]-(4-cyano-2,2-dimethyl-butyl)-amino]-1-benzyl-2-hydroxy-propyl}-carbamic acid (3R,3aS,6aR)hexahydro-furo[2,3-b]furan-3-yl ester]
Ki [1, 3]: < 0.001 µM | IC50 [2, 4]: 0.1 to 0.5 µM

COc1ccc(S(=O)(=O)N(C=C(C#N)C#N)C[C@@H](O)[C@H](Cc2ccccc2)NC(=O)OC(C)(C)C)cc1 [Compound 113]
Ki [1, 3]: 0.01 to 0.1 µM | IC50 [2, 4]: 0.5 to 1 µM

COc1ccc(S(=O)(=O)N(CCC#N)C[C@@H](O)[C@H](Cc2ccccc2)NC(=O)O[C@H]2CO[C@H]3OCC[C@H]32)cc1 [Compound 124, {(1S,2R)-3-[(4-methoxybenzenesulfonyl)-(2-cyanoethyl)-amino]-1-benzyl-2-hydroxy-propyl}-carbamic acid (3R,3aS,6aR)hexahydro-furo[2,3-b]furan-3-yl ester]
Ki [1, 3]: < 0.001 µM | IC50 [2, 4]: ≤ 0.1 µM

COc1ccc(S(=O)(=O)N(CCC#N)C[C@@H](O)[C@H](Cc2ccccc2)NC(=O)OC2COCOC2)cc1 [Compound 125]
Ki [1, 3]: < 0.001 µM | IC50 [2, 4]: > 1 µM

COc1ccc(S(=O)(=O)N(CCCCC2(C)OCCO2)C[C@@H](O)[C@H](Cc2ccccc2)NC(=O)OC(C)(C)C)cc1 [Compound 201, tert-Butyl N-((1S,2R)-1-benzyl-2-hydroxy-3-[(4-methoxyphenyl)sulfonyl][4-(2-methyl-1,3-dioxolan-2-yl)butyl]aminopropyl)carbamate]
Ki [1, 3]: 0.001 to 0.01 µM | IC50 [2, 4]: > 1 µM

COc1ccc(S(=O)(=O)N(CCCCC2(C)OCCO2)C[C@@H](O)[C@H](Cc2ccccc2)NC(=O)OC(C)(C)C)cc1 [Compound 204, tert-Butyl N-((1S,2R)-1-benzyl-2-hydroxy-3-[(4-methoxyphenyl)sulfonyl][4-(2-methyl-1,3-dioxolan-2-yl)butyl]aminopropyl)carbamate]
Ki [1, 3]: 0.001 to 0.01 µM | IC50 [2, 5]: 0.5 to 1 µM

COc1ccc(S(=O)(=O)N(CCCCC(C)=O)C[C@@H](O)[C@H](Cc2ccccc2)NC(=O)O[C@H]2CCOC2)cc1 [Compound 205, (3S)-Tetrahydro-3-furanyl N-(1S,2R)-1-benzyl-2-hydroxy-3-[[(4-methoxyphenyl)sulfonyl](5-oxohexyl)amino]-propylcarbamate]
Ki [1, 3]: < 0.001 µM | IC50 [2, 4]: 0.5 to 1 µM

CCC(CCC(C)=O)CN(CC(O)[C@H](Cc1ccccc1)NC(=O)OC1CCOC1)S(=O)(=O)c1ccc(OC)cc1 (stereo partly drawn) [Compound 206, (3S)-Tetrahydro-3-furanyl N-((1S,2R)-1-benzyl-3-(2-ethyl-5-oxohexyl)[(4-methoxyphenyl)sulfonyl]amino-2-hydroxypropyl)carbamate]
Ki [1, 3]: < 0.001 µM | IC50 [2, 4]: ≤ 0.1 µM

COc1ccc(S(=O)(=O)N(CC(C)CCC(C)=O)CC(O)[C@H](Cc2ccccc2)NC(=O)OC2CCOC2)cc1 (stereo partly drawn) [Compound 207, (3S)-Tetrahydro-3-furanyl N-(1S, 2R)-1-benzyl-2-hydroxy-3-[[(4-methoxyphenyl)sulfonyl](2-methyl-5-oxohexyl)amino]propylcarbamate]
Ki [1, 3]: < 0.001 µM | IC50 [2, 4]: ≤ 0.1 µM

COc1ccc(S(=O)(=O)N(C[C@@H](O)[C@H](Cc2ccccc2)NC(=O)O[C@H]2CCOC2)CC(C)(C)CCC(C)=O)cc1 [Compound 208, (3S)-Tetrahydro-3-furanyl N-((1S,2R)-1-benzyl-3-(2-,2-dimethyl-5-oxohexyl)[(4-methoxyphenyl)sulfonyl]amino-2-hydroxypropyl)carbamate]
Ki [1, 3]: < 0.001 µM | IC50 [2, 4]: 0.1 to 0.5 µM

COc1ccc(S(=O)(=O)N(C[C@@H](O)[C@H](Cc2ccccc2)NC(=O)O[C@H]2CCOC2)CC(C)(C)CCCC(C)=O)cc1 [Compound 209]
Ki [1, 3]: < 0.001 µM | IC50 [2, 4]: 0.1 to 0.5 µM

COC(=O)NCCCC(C)(C)CN(CC(O)C(Cc1ccccc1)NC(=O)OC1COC2OCCC12)S(=O)(=O)c1ccc(OC)cc1 [Compound 213, (3R,3aS,6aR)hexahydrofuro[2,3-b]furan-3-yl N-((1S,2R)-1-benzyl-2-hydroxy-3-5-[(methoxycarbonyl)amino]-2,2-dimethylpentyl[(4-methoxyphenyl)sulfonyl]aminopropyl)carbamate and (3S,3aR,6aS)hexahydrofuro[2,3-b]furan-3-yl N-((1S,2R)-1-benzyl-2-hydroxy-3-5-[(methoxycarbonyl)amino]-2,2-dimethylpentyl[(4-methoxyphenyl)sulfonyl]aminopropyl)carbamate]
Ki [1, 3]: < 0.001 µM | IC50 [2, 4]: ≤ 0.1 µM

COc1ccc(S(=O)(=O)N(CC(O)C(Cc2ccccc2)NC(=O)OC2COC3OCCC23)CC(C)(C)CCCNS(C)(=O)=O)cc1 [Compound 215, (3R,3aS,6aR)hexahydrofuro[2,3-b]furan-3-yl N-((1S,2R)-1-benzyl-3-2,2-dimethyl-5-[(methylsulfonyl)amino]pentyl[(4-methoxyphenyl)sulfonyl]amino-2-hydroxypropyl)carbamate and (3S,3aR, 6aS)hexahydrofuro[2,3-b]furan-3-yl N-((1s,2R)-1-benzyl-3-2,2-dimethyl-5-[(methylsulfonyl)amino]pentyl[(4-methoxyphenyl)sulfonyl]amino-2-hydroxypropyl)carbamate]
Ki [1, 3]: < 0.001 µM | IC50 [2, 4]: ≤ 0.1 µM

COC(=O)NCCC(C)(C)CN(CC(O)C(Cc1ccccc1)NC(=O)OC1COC2OCCC12)S(=O)(=O)c1ccc(OC)cc1 [Compound 218, (3R,3aS,6aR)hexahydrofuro[2,3-b]furan-3-yl N-((1S,2R)-1-benzyl-2-hydroxy-3-4-[(methoxycarbonyl)amino]-2,2-dimethylbutyl[(4-methoxyphenyl)sulfonyl]aminopropyl)carbamate and (3S,3aR,6aS)hexahydrofuro[2,3-b]furan-3-yl N-((1S,2R)-1-benzyl-2-hydroxy-3-4-[(methoxycarbonyl)amino]-2,2-dimethylbutyl[(4-methoxyphenyl)sulfonyl]aminopropyl)carbamate]
Ki [1, 3]: < 0.001 µM | IC50 [2, 4]: ≤ 0.1 µM

COc1ccc(S(=O)(=O)N(CC(O)C(Cc2ccccc2)NC(=O)OC2COC3OCCC23)CC(C)(C)CCNS(C)(=O)=O)cc1 [Compound 220, (3R,3aS,6aR)hexahydrofuro[2,3-b]furan-3-yl N-((1S,2R)-1-benzyl-3-2,2-dimethyl-4-[(methylsulfonyl)amino]butyl[(4-methoxyphenyl)sulfonyl]amino-2-hydroxypropyl)carbamate and (3S,3aR,6aS)hexahydrofuro[2,3-b]furan-3-yl N-((1S,2R)-1-benzyl-3-2,2-dimethyl-4-[(methylsulfonyl)amino]butyl[(4-methoxyphenyl)sulfonyl]amino-2-hydroxypropyl)carbamate]
Ki [1]: < 0.001 µM | IC50 [2, 4]: ≤ 0.1 µM

CNC(=O)OCCC(C)(C)CN(CC(O)[C@H](Cc1ccccc1)NC(=O)OC1COC2OCCC12)S(=O)(=O)c1ccc(OC)cc1 (stereo partly drawn) [Compound 221, (3R,3aS,6aR)-Hexahydrofuro[2,3-b]furan-3-yl N-((1S,2R)-1-benzyl-3-(2,2-dimethyl-4-N′-methylcarbamoyloxybutyl)[(4-methoxyphenyl)sulfonyl]amino-2-hydroxypropyl)carbamate]
Ki [1, 3]: < 0.001 µM | IC50 [2, 4]: ≤ 0.1 µM

COC(=N[N+](=O)[O-])NCCC(C)(C)CN(CC(O)C(Cc1ccccc1)NC(=O)OC1COC2OCCC12)S(=O)(=O)c1ccc(OC)cc1 (stereo not drawn) [Compound 223]
Ki [1, 3]: < 0.001 µM | IC50 [2, 4]: ≤ 0.1 µM
